The results in this text go back to ChEMBL document CHEMBL4480363, “Recent developments in compounds acting in the DNA minor groove” (Medchemcomm, 2019).

In brackets after ≈: the same amount, converted by molar mass.

Broadly, the MIC50 is the lowest concentration that inhibits either 50% of growth or 50% of the strains tested, depending on the study. Read a high MIC50 as weaker potency. What is called IC50 is the concentration that inhibits the measured activity by half.

Assay [1] concerns Candida parapsilosis. In words: Antifungal activity against Candida parapsilosis ATCC 22019 incubated for 24 hrs by CLSI based broth microdilution method. Format: functional. Particulars: Lodderomyces parapsilosis, ATCC 22019, 24 h.
Assay [2] deals with Candida albicans. The experiment in a line: Antifungal activity against Candida albicans SC5314 incubated for 24 hrs by CLSI based broth microdilution method. Format: functional. Particulars: SC5314, 24 h. In general terms: Broth dilution looks for growth in wells or tubes with falling amounts of substance.
Assay [3] concerns Nakaseomyces glabratus. The experiment in a line: Antifungal activity against Candida glabrata ATCC 2001 incubated for 24 hrs by CLSI based broth microdilution method. Format: functional. Particulars: ATCC 2001, 24 h.
Assay [4] concerns Mycobacterium tuberculosis. The experiment in a line: Antitubercular activity against Mycobacterium tuberculosis HN878. Format: functional.
The test system of assay [5] is Mycobacterium tuberculosis. The experiment in a line: Antitubercular activity against Mycobacterium tuberculosis HN878 in presence of non-ionic surfactant vesicles relative to compound alone. Format: functional.
In assay [6] the test system is Trypanosoma brucei gambiense. In words: Trypanocidal activity against Trypanosoma brucei gambiense. Format: functional, organism-based.

In the case of `Cl.Cl.N=C(N)N/N=C/c1ccc(-c2ccc(/C=N/NC(=N)N)s2)cc1`, the MIC50 in assay [1], in assay [2] and in assay [3] was 2 to 15.6 µg/mL throughout.
As to `Cn1cc(NC(=O)c2cc(NC(=O)c3ccc(/C=C/c4ccc(C(F)(F)F)cc4)cc3)cn2C)cc1C(=O)NCCC(=N)N`, the MIC50 in assay [4] was 4.19 µM (≈ 2.54 µg/mL). Further, the “fold change (FC)” value in assay [5] turned out to be 2.1.
For `Cl.Cl.N=C(N)N/N=C/c1ccc(-c2cnc(-c3ccc(/C=N/NC(=N)N)cc3)s2)cc1`, the MIC50 in assay [1], in assay [2] and in assay [3] was 2 to 15.6 µg/mL each time.
Regarding `Cn1cc(NC(=O)c2cc(NC(=O)c3ccc(/C=C/c4nc5ccccc5s4)cc3)cn2C)cc1C(=O)NCCC(=N)N`, in assay [4], the MIC50 is 4.09 µM (≈ 2.43 µg/mL). Also, in assay [5], the “fold change (FC)” value was 1.6.
In the case of `C/C(=N\NC(=N)N)c1ccc(-c2ccc(/C(C)=N/NC(=N)N)s2)cc1.Cl.Cl`, the MIC50 in assay [1], in assay [2] and in assay [3] was 2 to 15.6 µg/mL each time.
On to `Cl.Cl.N=C(N)N/N=C/c1ccc(-c2ccc(/C=N/NC(=N)N)o2)cc1`, for which the MIC50 in assay [1], in assay [2] and in assay [3] was 2 to 15.6 µg/mL in each case.
In assay [6], `N=C(N)c1ccc(OCCCCCOc2ccc(C(=N)N)cc2)cc1` [PENTAMIDINE] yielded an IC50 of 1 to 10 nM.
